molecular target: T1, human Y5 receptor (Homo sapiens, UniProt Q15761); assay: Radioligand binding to membranes, cloned human Y5 receptor; conditions: Table 1; read-out: Ki (nM) hNPY-5
T1 construct: expressed in transfected cells; host or cells: mouse fibroblast LM(tk-) cells, e.g. L-hY5-7 (ATCC CRL-11995)
T1 sequence (Q15761 1-445): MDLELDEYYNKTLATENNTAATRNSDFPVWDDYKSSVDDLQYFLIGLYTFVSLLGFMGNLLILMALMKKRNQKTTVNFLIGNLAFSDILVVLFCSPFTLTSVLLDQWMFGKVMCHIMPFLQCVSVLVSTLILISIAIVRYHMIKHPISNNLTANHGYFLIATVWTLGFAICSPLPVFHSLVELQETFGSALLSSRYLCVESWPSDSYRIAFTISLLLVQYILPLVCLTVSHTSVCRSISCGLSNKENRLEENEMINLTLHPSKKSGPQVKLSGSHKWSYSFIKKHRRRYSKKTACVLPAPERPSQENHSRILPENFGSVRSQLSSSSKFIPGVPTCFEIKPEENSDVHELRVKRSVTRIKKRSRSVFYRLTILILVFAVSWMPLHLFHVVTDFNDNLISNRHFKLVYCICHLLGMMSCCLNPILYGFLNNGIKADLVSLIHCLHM

SMILES	Ki [nM]
CC(C)Nc1nc(NCC2CCC(CNS(=O)(=O)c3cccc4ccccc34)CC2)nc(N2CCOCC2)n1 (centres unmarked) [Example 24, N1-[4-([4-(isopropylamino)-6-morpholino-1,3,5-triazin-2-yl]aminomethyl)cyclohexyl]methyl-1-naphthalenesulfonamide]	40
COCCNc1nc(NCC2CCC(CNS(=O)(=O)c3cccc4ccccc34)CC2)nc(NC(C)C)n1 (centres unmarked) [Example 12, N1-(4-[(4-(isopropylamino)-6-[(2-methoxyethyl)amino]-1,3,5-triazin-2-ylamino)methyl]cyclohexylmethyl)-1-naphthalenesulfonamide]	18
CC(C)Nc1nc(NCC2CCC(CNS(=O)(=O)c3cccc4ccccc34)CC2)nc(N2CCN(C(C)C)CC2)n1 (centres unmarked) [Example 28, N1-{[4-({[4-(isopropylamino)-6-(4-isopropylpiperazino)-1,3,5-triazin-2-yl]amino}methyl)cyclohexyl]methyl}-1-naphthalenesulfonamide]	22
CCCCCNc1nc(NCC2CCC(CNS(=O)(=O)c3cccc4ccccc34)CC2)nc(NC(C)C)n1 (centres unmarked) [Example 9, N1-[4-([4-(isopropylamino)-6-(pentylamino)-1,3,5-triazin-2-yl]aminomethyl)cyclohexyl]methyl-1-naphthalenesulfonamide]	6

The remaining lines, values ahead:

Ki [nM]	SMILES
86	CC(C)Nc1nc(NCC2CCC(CNS(=O)(=O)c3cccc4ccccc34)CC2)nc(N(C)CCO)n1 (centres unmarked) [Example 26, N1-[4-([4-[(2-hydroxyethyl)(methyl)amino]-6-(isopropylamino)-1,3,5-triazin-2-yl]aminomethyl)cyclohexyl]methyl-1-naphthalenesulfonamide]
83	CC(C)Nc1nc(NCCCn2ccnc2)nc(NCC2CCC(CNS(=O)(=O)c3cccc4ccccc34)CC2)n1 (centres unmarked) [Example 15, N1-[4-([4-[3-(1H-1-imidazolyl)propyl]amino-6-(isopropylamino)-1,3,5-triazin-2-yl]aminomethyl)cyclohexyl]methyl-1-naphthalenesulfonamide]
53	CCN(CC)c1nc(NCC2CCC(CNS(=O)(=O)c3cccc4ccccc34)CC2)nc(NC(C)C)n1 (centres unmarked) [Example 19, N1-[4-([4-(diethylamino)-6-(isopropylamino)-1,3,5-triazin-2-yl]aminomethyl)cyclohexyl]methyl-1-naphthalenesulfonamide]

same assay, conditions: Table 2; read-out: Ki (nM) hNPY-5

SMILES	Ki [nM]
CCNc1nc(NCC)nc(NCC2CCC(CNS(=O)(=O)c3cccnc3)CC2)n1 (centres unmarked) [Example 34, N3-[4-([4,6-di(ethylamino)-1,3,5-triazin-2-yl]aminomethyl)cyclohexyl]methyl-3-pyridinesulfonamide]	427
CCNc1nc(NCC)nc(NCC2CCC(CNS(=O)(=O)c3ccc(C)cc3)CC2)n1 (centres unmarked) [Example 39, N1-[4-([4,6-di(ethylamino)-1,3,5-triazin-2-yl]aminomethyl)cyclohexyl]methyl-4-methyl-1-benzenesulfonamide]	28

Results, then the compound that gave them:

Ki [nM]	SMILES
35	CCNc1nc(NCC)nc(NCC2CCC(CNS(=O)(=O)c3ccccc3F)CC2)n1 (centres unmarked) [Example 32, N1-[4-([4,6-di(ethylamino)-1,3,5-triazin-2-yl]aminomethyl)cyclohexyl]methyl-2-fluoro-1-benzenesulfonamide]
3070	CCNc1nc(NCC)nc(NCC2CCC(CNS(C)(=O)=O)CC2)n1 (centres unmarked) [Example 42, N-[4-([4,6-di(ethylamino)-1,3,5-triazin-2-yl]aminomethyl)cyclohexyl]methylmethanesulfonamide]

same assay, conditions: Table 3; read-out: Ki (nM) hNPY-5

Ki [nM]	SMILES
192	CC(C)Nc1nc(NCC2CCC(CNS(=O)(=O)N(C)C)CC2)nc(NC2CC2)n1 (centres unmarked) [Example 48, N′-[4-([4-(cyclopropylamino)-6-(isopropylamino)-1,3,5-triazin-2-yl]aminomethyl)cyclohexyl]methyl-N,N-dimethylsulfamide]
43	CC(C)Nc1nc(NCC2CCC(CNS(=O)(=O)N3CCCC3)CC2)nc(N2CCCC2)n1 (centres unmarked) [Example 43, N1-[4-([4-(isopropylamino)-6-tetrahydro-1H-1-pyrrolyl-1,3,5-triazin-2-yl]aminomethyl)cyclohexyl]methyl-1-pyrrolidinesulfonamide]

SMILES	Ki [nM]
CC(C)(C)c1ccc(S(=O)(=O)NCC2CCC(CNc3nc(N4CCCC4)nc(N4CCCC4)n3)CC2)cc1 (centres unmarked) [Example 46, N1-[(4-[(4,6-ditetrahydro-1H-1-pyrrolyl-1,3,5-triazin-2-yl)amino]methylcyclohexyl)methyl]-4-(tert-butyl)-1-benzenesulfonamide]	68

same assay, conditions: Table 4; read-out: Ki (nM) hNPY-5

Ki [nM]	SMILES
> 100000	CCNc1nc(NCC)nc(NCCCn2ccnc2)n1 [Example 57, N2,N4-diethyl-N6-[3-(1H-1-imidazolyl)propyl]-1,3,5-triazine-2,4,6-triamine]
> 100000	CCNc1nc(NCC)nc(NCc2ccccn2)n1 [Example 58, N2,N4-diethyl-N6-(2-pyridylmethyl)-1,3,5-triazine-2,4,6-triamine]

same assay, conditions: Table 5; read-out: Ki, nM hNPY-5

Ki [nM]	SMILES
17.5	CN(C)S(=O)(=O)NC[C@H]1CC[C@H](Nc2nc(-c3nccs3)cs2)CC1 [Example 90, trans-N,N-dimethyl-N′-[(4-[4-(-1,3-thiazol-2-yl)-1,3-thiazol-2-yl]aminocyclohexyl)methyl]sulfamide]
179	O=S(=O)(NCCCCCNc1nc(-c2nccs2)cs1)c1ccc(F)cc1 [Example 95, N1-(5-[4-(1,3-Thiazol-2-yl)-1,3-thiazol-2-yl]aminopentyl)-4-fluoro-1-benzenesulfonamide]
3.8	Cc1noc(C)c1S(=O)(=O)N[C@H]1CC[C@H](CNc2nc(-c3ccccn3)cs2)CC1 [Example 85, trans-2-(4-(3,5-Dimethyl-4-isoxazolyl)sulfonylamino)-cyclohexylmethylamino-4-(2-pyridyl)thiazole dihydrogen chloride]
42	O=S(=O)(NCCCCCNc1nc(-c2ccccn2)cs1)c1ccc(F)c(F)c1 [Example 64, 2-(5-(3,4-Difluorophenyl)sulfonylamino)pentylamino-4-(2-pyridyl)thiazole hydrogen chloride]
8.1	Cc1nc(-c2csc(NCCCCCNS(=O)(=O)N(C)C)n2)c(C)s1 [Example 96, N′-(5-[4-(2,5-Dimethyl-1,3-thiazol-4-yl)-1,3-thiazol-2-yl]aminopentyl)-N,N-dimethylsulfamide]

same assay, conditions: Table 6; read-out: Ki, nM hNPY-5

SMILES	Ki [nM]
O=S(=O)(Cc1ccccc1)NCCCCCNc1nc2c(s1)CCSc1ccccc1-2 [Example 133, N-[5-(4,5-dihydrobenzo[2,3]thiepino[4,5-d][1,3]thiazol-2-ylamino)pentyl]phenyl-methanesulfonamide]	38
O=S(=O)(NCCCCNc1nc2c(s1)CCSc1ccccc1-2)c1ccc(F)cc1F [Example 138, N1-[4-(4,5-Dihydrobenzo[2,3]thiepino[4,5-d][1,3]thiazol-2-ylamino)butyl]-2,4-difluoro-1-benzenesulfonamide]	119
Cc1ccc(S(=O)(=O)NC[C@H]2CC[C@H](Nc3nc4c(s3)CCSc3ccccc3-4)CC2)cc1 [Example 156, N1-{[4-(4,5-Dihydrobenzo[2,3]thiepino[4,5-d][1,3]thiazol-2-ylamino)cyclohexyl]methyl}-4-methyl-1-benzenesulfonamide]	6.6
CN(C)c1cccc2c(S(=O)(=O)NCCCCCCNc3nc4c(s3)CCSc3ccccc3-4)cccc12 [Example 115, N1-[6-(4,5-Dihydrobenzo[2,3]thiepino[4,5-d][1,3]thiazol-2-ylamino)hexyl]-5-(dimethylamino)-1-naphthalenesulfonamide]	71

The next lines start with the values.

Ki [nM]	SMILES
161	CN(C)c1cccc2c(S(=O)(=O)NCCCCCNc3nc4c(s3)CCSc3ccccc3-4)cccc12 [Example 123, N1-[5-(4,5-Dihydrobenzo[2,3]thiepino[4,5-d][1,3]thiazol-2-ylamino)pentyl]-5-(dimethylamino)-1 naphthalenesulfonamide]
17.2	Cn1cnc(S(=O)(=O)NCCCCCNc2nc3c(s2)CCSc2ccccc2-3)c1 [Example 111, N4-[5-(4,5-Dihydrobenzo[2,3]thiepino[4,5-d][1,3]thiazol-2-ylamino)pentyl]-1-methyl-1H-4-imidazolesulfonamide]
6.6	O=S(=O)(NCCCCCCNc1nc2c(s1)CCSc1ccccc1-2)c1c(Cl)nc2sccn12 [Example 117, N5-[6-(4,5-Dihydrobenzo[2,3]thiepino[4,5-d][1,3]thiazol-2-ylamino)hexyl]-6-chloroimidazo[2,1-b][1,3]thiazole-5-sulfonamide]
122	CN(C)C(=O)NCCCCCNc1nc2c(s1)CCSc1ccccc1-2 [Example 139, N′-[5-(4,5-Dihydrobenzo[2,3]thiepino[4,5-d][1,3]thiazol-2-ylamino)pentyl]-N,N-dimethylurea]
4.8	CC(C)N(C=O)[C@H]1CC[C@H](CNc2nc3c(s2)CCSc2ccccc2-3)CC1 [Example 165, trans-N-4-[(4,5-Dihydrobenzo[2,3]thiepino[4,5-d][1,3]thiazol-2-ylamino)methyl]cyclohexyl-N-isopropylformamide]
3.6	CCCS(=O)(=O)NCCCCCCNc1nc2c(s1)CCSc1ccccc1-2 [Example 143, N1-[6-(4,5-Dihydrobenzo[2,3]thiepino[4,5-d][1,3]thiazol-2-ylamino)hexyl]-1-propanesulfonamide]
3.7	O=S(=O)(NCCCCCNc1nc2c(s1)CCSc1ccccc1-2)c1ccccc1F [Example 128, N1-[5-(4,5-Dihydrobenzo[2,3]thiepino[4,5-d][1,3]thiazol-2-ylamino)pentyl]-2-fluoro-1-benzenesulfonamide]

From patent US7189720B2 (H. Lundbeck A/S, priority 1999, dated 2007)
